Source: patent US20260049085A1, “CYCLIC COMPOUNDS AND METHODS OF USING SAME” (SCHRÖDINGER, INC., priority 2022, published 2026)

Target: T1, full-length MALT1 protein His-MALT1(1-824) (Homo sapiens, UniProt Q9UDY8)
T1 construct: full-length MALT1 protein His-MALT1(1-824); His (N); made in house; host or cells: baculovirus-infected insect cells
T1 sequence (Q9UDY8 1-824): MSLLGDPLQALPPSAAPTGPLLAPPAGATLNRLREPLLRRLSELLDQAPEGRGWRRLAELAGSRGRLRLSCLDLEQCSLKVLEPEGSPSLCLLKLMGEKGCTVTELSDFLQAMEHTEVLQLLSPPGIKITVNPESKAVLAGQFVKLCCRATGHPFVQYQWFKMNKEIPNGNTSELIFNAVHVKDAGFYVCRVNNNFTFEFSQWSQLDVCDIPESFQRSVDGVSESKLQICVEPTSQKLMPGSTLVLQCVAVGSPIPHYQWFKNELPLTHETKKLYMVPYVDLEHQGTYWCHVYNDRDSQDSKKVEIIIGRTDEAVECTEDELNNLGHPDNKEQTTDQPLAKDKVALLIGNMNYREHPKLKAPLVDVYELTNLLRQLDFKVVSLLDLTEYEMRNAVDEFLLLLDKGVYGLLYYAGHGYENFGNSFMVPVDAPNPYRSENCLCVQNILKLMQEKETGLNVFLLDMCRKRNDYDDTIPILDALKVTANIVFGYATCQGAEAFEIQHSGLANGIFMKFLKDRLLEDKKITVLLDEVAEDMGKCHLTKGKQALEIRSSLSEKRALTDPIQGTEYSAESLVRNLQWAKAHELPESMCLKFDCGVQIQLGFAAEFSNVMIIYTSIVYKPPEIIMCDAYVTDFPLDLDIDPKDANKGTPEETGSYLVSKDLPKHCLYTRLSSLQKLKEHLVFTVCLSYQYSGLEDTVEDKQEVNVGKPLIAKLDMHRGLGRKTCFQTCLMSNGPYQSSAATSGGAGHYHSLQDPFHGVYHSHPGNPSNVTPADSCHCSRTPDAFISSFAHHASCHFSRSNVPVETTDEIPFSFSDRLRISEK
Assay: MALT1 protease assay (Ac-LRSR-AMC tetrapeptide substrate, fluorescence)
Type: biochemical
Conditions: 1 nM MALT1, 25 μM Ac-LRSR-AMC, 2 h pre-incubation, 8 hr incubation at RT
Outline: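 Full-length His-MALT1(1-824) from baculovirus-infected insect cells (1 nM) was pre-incubated 2 h at RT with compounds (0.1% DMSO), then 25 μM Ac-LRSR-AMC added in 50 mM Tris pH 7.5, 600 mM sodium citrate, 1 mM DTT, 1 mM EDTA, 0.05% BSA. Fluorescence (ex 355/em 460 nm) read after 8 h at RT; IC50 by non-linear regression of % remaining activity.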

Row | Compound | IC50
1 | C[C@@]1(c2cnn(C3CC3)c2)C[C@@H](C(=O)Nc2cnc(-n3nccn3)c(Cl)c2)c2cnc3cc(F)nn3c21 (single isomer, unassigned) [Example 29] | ≥ 1000 nM
2 | Cn1cc([C@@]2(C)C[C@@H](C(=O)Nc3cnc(-n4nccn4)c(Cl)c3)c3cnc4c(Cl)c(F)nn4c32)cn1 (single isomer, unassigned) [Example 19, cis-3-chloro-N-(5-chloro-6-(2H-1,2,3-triazol-2-yl)pyridin-3-yl)-2-fluoro-8-methyl-8-(1-methyl-1H-pyrazol-4-yl)-7,8-dihydro-6H-cyclopenta[e]pyrazolo[1,5-a]pyrimidine-6-carboxamide] | ≥ 1000 nM
3 | Cn1cc([C@@]2(C)C[C@@H](C(=O)Nc3ccnc(C(F)(F)F)c3)c3cnc4cc(Cl)nn4c32)cn1 (single isomer, unassigned) [Example 47] | ≥ 1000 nM
4 | CCn1cc([C@]2(C)C[C@@H](C(=O)Nc3cnc(-n4nccn4)c(Cl)c3)c3cnc4cc(F)nn4c32)cn1 (single isomer, unassigned) [Example 21] | ≥ 1000 nM
5 | C[C@@]1(c2cncs2)C[C@H](C(=O)Nc2cnc(-n3nccn3)c(Cl)c2)c2cnc3cc(F)nn3c21 (single isomer, unassigned) [Example 38] | 10 to 100 nM
6 | Cn1cc([C@@]2(C)C[C@H](C(=O)Nc3cnc(OC(F)(F)F)c(C#N)c3)c3cnc4cc(F)nn4c32)cn1 (single isomer, unassigned) [Example 52] | 10 to 100 nM
7 | Cn1cc([C@]2(C)C[C@H](C(=O)Nc3cnc(-n4nccn4)c(C(F)(F)F)c3)c3cnc4cc(F)nn4c32)cn1 (single isomer, unassigned) [Example 7] | 100 to 1000 nM
8 | C[C@@]1(c2cnn(C(F)F)c2)C[C@H](C(=O)Nc2cnc(-n3nccn3)c(Cl)c2)c2cnc3cc(F)nn3c21 (single isomer, unassigned) [Example 26] | 10 to 100 nM
9 | CC(C)n1cc([C@]2(C)C[C@H](C(=O)Nc3cnc(-n4nccn4)c(Cl)c3)c3cnc4cc(F)nn4c32)cn1 (single isomer, unassigned) [Example 50] | 10 to 100 nM
10 | CC(C)n1cc([C@@]2(C)C[C@H](C(=O)Nc3cnc(-n4nccn4)c(Cl)c3)c3cnc4cc(F)nn4c32)cn1 (single isomer, unassigned) [Example 48] | < 10 nM
11 | Cc1cc(NC(=O)[C@@H]2C[C@@](C)(c3cnn(C)c3)c3c2cnc2cc(F)nn32)cnc1-n1nccn1 (single isomer, unassigned) [Example 57, trans-2-fluoro-8-methyl-8-(1-methyl-1H-pyrazol-4-yl)-N-(5-methyl-6-(2H-1,2,3-triazol-2-yl)pyridin-3-yl)-7,8-dihydro-6H-cyclopenta[e]pyrazolo[1,5-a]pyrimidine-6-carboxamide] | ≥ 1000 nM
12 | Cn1cc([C@]2(C)C[C@@H](C(=O)Nc3cnc(OC(F)F)c(C#N)c3)c3cnc4cc(F)nn4c32)cn1 (single isomer, unassigned) [Example 41] | ≥ 1000 nM
13 | Cn1cc([C@]2(C)C[C@H](C(=O)Nc3cnc(-n4nccn4)c(Cl)c3)c3cnc4cc(F)nn4c32)cn1 (racemic) [Example 3, (cis)-N-(5-chloro-6-(2H-1,2,3-triazol-2-yl)pyridin-3-yl)-2-fluoro-8-methyl-8-(1-methyl-1H-pyrazol-4-yl)-7,8-dihydro-6H-cyclopenta[e]pyrazolo[1,5-a]pyrimidine-6-carboxamide] | 100 to 1000 nM
14 | Cn1ccc([C@]2(C)C[C@@H](C(=O)Nc3cnc(-n4nccn4)c(Cl)c3)c3cnc4cc(F)nn4c32)n1 (single isomer, unassigned) [Example 33] | ≥ 1000 nM
15 | Cn1ccc([C@]2(C)C[C@@H](C(=O)Nc3cnc(OC(F)F)c(C#N)c3)c3cnc4cc(F)nn4c32)n1 (single isomer, unassigned) [Example 69] | ≥ 1000 nM

Next, values leading:

Row | IC50 | Compound
16 | 10 to 100 nM | C[C@@]1(c2ccn(C(F)F)n2)C[C@H](C(=O)Nc2cnc(-c3ncccn3)c(C(F)(F)F)c2)c2cnc3cc(Cl)nn3c21 (single isomer, unassigned) [Example 173]
17 | 100 to 1000 nM | C[C@]1(c2cnn(C(F)(F)F)c2)C[C@@H](C(=O)Nc2cnc(-n3nccn3)c(Cl)c2)c2cnc3cc(F)nn3c21 (single isomer, unassigned) [Example 105]
18 | ≥ 1000 nM | C[C@@]1(c2ccn(C(F)F)n2)C[C@@H](C(=O)Nc2ccc(-c3ncccn3)c(C(F)(F)F)c2)c2cnc3cc(F)nn3c21 (single isomer, unassigned) [Example 186]
19 | ≥ 1000 nM | C[C@@]1(c2cnn(CC(F)(F)F)c2)C[C@@H](C(=O)Nc2cnc(-n3nccn3)c(Cl)c2)c2cnc3cc(F)nn3c21 (single isomer, unassigned) [Example 85]
20 | ≥ 1000 nM | CC1(c2ccn(C(F)F)n2)CC(C(=O)Nc2cnc(-c3cccnn3)c(C(F)(F)F)c2)c2cnc3cc(F)nn3c21 (single isomer, unassigned) [Example 163]
21 | ≥ 1000 nM | C[C@@]1(c2ccn(C(F)F)n2)C[C@@H](C(=O)Nc2cnc(-c3ncccn3)c(Cl)c2)c2cnc3cc(F)nn3c21 (single isomer, unassigned) [Example 141]
22 | ≥ 1000 nM | CC1(n2ccc([C@@]3(C)C[C@@H](C(=O)Nc4cnc(-c5ncccn5)c(C(F)(F)F)c4)c4cnc5cc(F)nn5c43)n2)CC1 (single isomer, unassigned) [Example 161]
23 | 100 to 1000 nM | COc1cc(NC(=O)[C@@H]2C[C@@](C)(c3ccn(C(F)F)n3)c3c2cnc2cc(F)nn32)cnc1-c1ncccn1 (single isomer, unassigned) [Example 180]
24 | 100 to 1000 nM | Cn1ccc([C@]2(C)C[C@H](C(=O)Nc3cnc(OC(F)F)c(C#N)c3)c3cnc4cc(F)nn4c32)n1 (single isomer, unassigned) [Example 70]
25 | 100 to 1000 nM | C[C@@]1(c2cnn(C(F)(F)F)c2)C[C@H](C(=O)Nc2cnc(-n3nccn3)c(Cl)c2)c2cnc3cc(F)nn3c21 (single isomer, unassigned) [Example 104]
26 | 10 to 100 nM | C[C@@]1(c2ccn(C(F)F)n2)C[C@H](C(=O)Nc2cnc(-n3nccn3)c(Cl)c2)c2cnc3cc(F)nn3c21 (single isomer, unassigned) [Example 90]
27 | 10 to 100 nM | C[C@]1(c2cnn(C(F)F)c2)C[C@H](C(=O)Nc2cnc(-c3ncc(F)cn3)c(C(F)(F)F)c2)c2cnc3cc(F)nn3c21 [Example 132, (6S,8R)-8-(1-(difluoromethyl)-1H-pyrazol-4-yl)-2-fluoro-N-(6-(5-fluoropyrimidin-2-yl)-5-(trifluoromethyl)pyridin-3-yl)-8-methyl-7,8-dihydro-6H-cyclopenta[e]pyrazolo[1,5-a]pyrimidine-6-carboxamide]
28 | < 10 nM | C[C@]1(c2cnn(CC3CC3)c2)C[C@H](C(=O)Nc2cnc(-n3nccn3)c(Cl)c2)c2cnc3cc(F)nn3c21 (single isomer, unassigned) [Example 98]
29 | 10 to 100 nM | C[C@@]1(c2ccn(C(F)F)n2)C[C@H](C(=O)Nc2ccc(-c3ncccn3)c(C(F)(F)F)c2)c2cnc3cc(F)nn3c21 (single isomer, unassigned) [Example 187]
30 | ≥ 1000 nM | CC1(c2cnn(C(F)F)c2)CC(C(=O)Nc2cnc(N=S3(=O)CCC3)c(Cl)c2)c2cnc3cc(F)nn3c21 (single isomer, unassigned) [Example 97]
31 | 10 to 100 nM | CC1(c2ccn(C(F)F)n2)CC(C(=O)Nc2cnc(-c3ncc(F)cn3)c(Cl)c2)c2cnc3cc(F)nn3c21 (single isomer, unassigned) [Example 114]
32 | 10 to 100 nM | C[C@@]1(c2cnn(C3CC3)c2)C[C@H](C(=O)Nc2cnc(OC(F)F)c(C#N)c2)c2cnc3cc(F)nn3c21 (single isomer, unassigned) [Example 74]
33 | ≥ 1000 nM | Cn1ccc([C@]2(C)C[C@@H](C(=O)Nc3cnc(-n4nccn4)c(Cl)c3)c3cnc4cc(Cl)nn4c32)n1 (single isomer, unassigned) [Example 77]
34 | 10 to 100 nM | Cc1cc2ncc3c(n2n1)[C@@](C)(c1ccn(C(F)F)n1)C[C@@H]3C(=O)Nc1cnc(-c2ncccn2)c(C(F)(F)F)c1 (racemic) [Example 195, (tras)-8-(1-(difluoromethyl)-1H-pyrazol-3-yl)-2,8-dimethyl-N-(6-(pyrimidin-2-yl)-5-(trifluoromethyl)pyridin-3-yl)-7,8-dihydro-6H-cyclopenta[e]pyrazolo[1,5-a]pyrimidine-6-carboxamide]
35 | 100 to 1000 nM | C[C@]1(c2cnn(C(F)F)c2)CC(C(=O)Nc2cnc(-n3nccn3)c(C(F)(F)F)c2)c2cnc3cc(F)nn3c21 (single isomer, unassigned) [Example 83]
36 | 10 to 100 nM | CC1(c2ccn(C(F)F)n2)CC(C(=O)Nc2cnc(-c3ncccn3)c(C(F)F)c2)c2cnc3cc(F)nn3c21 (single isomer, unassigned) [Example 193]
